Data published in patent EP1400530A1, “Suppression of immune response via inhibition of cathepsin S” (MASSACHUSETTS INSTITUTE OF TECHNOLOGY, priority 1996, dated 1997).

System: Peripheral blood mononuclear cells (PBMC's)
Assay type: cell-based, human
Settings: 3-5 days; 20 µM

SMILES: CCOC(=O)[C@H]1O[C@@H]1C(=O)N[C@@H](CC(C)C)C(=O)NCCC(C)C (relative stereo) [E64D]
- attenuation of 3H-thymidine uptake response to tetanus toxoid: approximately 60%
